Values of other authors, collected in US20060069157A1, “Method of ameliorating or abrogating the effects of a neurodegenerative disorder, such as Huntington's disease, by sodium butyrate chemotherapy” (U.S. DEPARTMENT OF VETERANS AFFAIRS, priority 2004, published 2006).

Experiments:
[1] = tested on: Drosophila model of HD; conditions: Drosophila model of HD (Steffan 2001); cited from earlier work
[2] = tested on: transgenic HD mice; conditions: cyclodextrin as a carrier; transgenic HD mice (Hockly et al., 2003); cited from earlier work

## O=C(CCCCCCC(=O)Nc1ccccc1)NO [SAHA, suberoylanilide hydroxamic acid]
[1]
  photoreceptor neuron degeneration and lethality: slow photoreceptor neuron degeneration and ameliorate lethality
[2]
  histone levels: increase histone levels
  motor performance: improve motor performance
